Laboratory results: patent US20060069132A1, “Azolecarboxamide herbicides” (priority 2004, published 2006)

Columns and labels:
[1] = system: barnyardgrass; assay: Test B pre-/postemergence herbicide test; format: in vivo, Echinochloa crus-galli
Outline: (§1)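 Pre: seeds sown, then sprayed. Post: 1–4-leaf plants (2–18 cm) sprayed at the same time. Paddy: flooded, treated at 2-leaf stage. Formulation: non-phytotoxic solvent with surfactant. Greenhouse 13–15 days; visual 0–100 score relative to controls.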

[2] = system: Surinam grass; assay: Test B pre-/postemergence herbicide test; format: in vivo, Urochloa decumbens
Outline: (§2)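 Visual rating, 0 (no effect) to 100 (complete control), versus untreated controls after 13–15 d in greenhouse. Pre- and postemergence applications (postemergence plants 2–18 cm, 1–4 leaves); flooded paddy arm at 2-leaf stage. Compounds in non-phytotoxic solvent plus surfactant.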

[3] = system: cocklebur; assay: Test B pre-/postemergence herbicide test; format: in vivo, Xanthium strumarium
Outline: as §1

[4] = system: corn; assay: Test B pre-/postemergence herbicide test; format: in vivo, Zea mays
Outline: as §2

[5] = system: large crabgrass; assay: Test B pre-/postemergence herbicide test; format: in vivo, Digitaria sanguinalis
Outline: as §2

[6] = system: giant foxtail; assay: Test B pre-/postemergence herbicide test; format: in vivo, Setaria faberi
Outline: as §2

[7] = system: lambsquarters; assay: Test B pre-/postemergence herbicide test; format: in vivo, Chenopodium album
Outline: as §2

[8] = system: morningglory; assay: Test B pre-/postemergence herbicide test; format: in vivo, Ipomoea coccinea
Outline: as §1

[9] = system: pigweed; assay: Test B pre-/postemergence herbicide test; format: in vivo, Amaranthus retroflexus
Outline: as §2

[10] = system: velvetleaf; assay: Test B pre-/postemergence herbicide test; format: in vivo, Abutilon theophrasti
Outline: as §2

[11] = system: blackgrass; assay: Test B postemergence herbicide test; format: in vivo, Alopecurus myosuroides
Outline: (§3)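 Read-out: visual comparison with controls, scored 0 to 100, where 100 means complete control and 0 no effect. Formulated chemicals were applied postemergence to plants 2–18 cm tall (1- to 4-leaf), or to flooded-paddy plants at the 2-leaf stage, then held 13 to 15 days under glass.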

[12] = system: wheat; assay: Test B postemergence herbicide test; format: in vivo, Triticum aestivum; parameters: key to Wheat plant response rating: 0 = no effect, 100 = complete control
Outline: (§4)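 Scale 0–100: zero equals no visible effect, 100 complete control, judged by eye relative to controls. Timing: 13 to 15 days in greenhouse post-treatment. Growth stage at spraying: two leaves (paddy) or one to four leaves, 2–18 cm (postemergence).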

[13] = system: wild oat; assay: Test B postemergence herbicide test; format: in vivo, Avena fatua
Outline: as §4

[14] = system: rice; assay: Test B flooded paddy test; format: in vivo, Oryza sativa; conditions: scale 0 to 100 (0 no effect, 100 complete control)
Outline: as §3

[15] = system: small flower umbrella sedge; assay: Test B flooded paddy test; format: in vivo, Cyperus difformis; conditions: scale 0 to 100 (0 no effect, 100 complete control)
Outline: as §3

[16] = system: ducksalad; assay: Test B flooded paddy test; format: in vivo, Heteranthera limosa; conditions: scale 0 to 100 (0 no effect, 100 complete control)
Outline: as §3

[17] = system: barnyardgrass; assay: Test B flooded paddy test; format: in vivo, Echinochloa crus-galli; conditions: scale 0 to 100 (0 no effect, 100 complete control)
Outline: as §3

[18] = Postemergence, 250 g ai/ha, scale 0 (no effect) to 100 (complete control)
[19] = postemergence, 62 g ai/ha, scale 0 to 100
[20] = 1000 g ai/ha, visual rating, 13 to 15 days
[21] = Postemergence, 500 g ai/ha, scale 0 (no effect) to 100 (complete control)
[22] = postemergence, 125 g ai/ha, scale 0 to 100

For `CCOC(=O)c1ccc(F)c(NC(=O)c2cc(C3CC3)nn2CC)c1` [Compound 74], the “Barnyardgrass plant response rating” value [1, 18] was 0, the “Barnyardgrass plant response rating” value [1, 19] was 0 and the “Surinam Grass plant response rating” value [2, 18] was 10. The “Surinam Grass plant response rating” value [2, 19] was 0, the “Cocklebur plant response rating” value [3, 18] was 0 and the “Cocklebur plant response rating” value [3, 19] was 0. The “Corn plant response rating” value [4, 18] was 0, the “Corn plant response rating” value [4, 19] was 0 and the “Crabgrass, Large plant response rating” value [5, 18] was 10. For the same molecule, the “Crabgrass, Large plant response rating” value [5, 19] was 0, the “Foxtail, Giant plant response rating” value [6, 18] was 10 and the “Foxtail, Giant plant response rating” value [6, 19] was 10. For the same molecule, the “Lambsquarters plant response rating” value [7, 18] was 10, the “Lambsquarters plant response rating” value [7, 19] was 0 and the “Morningglory plant response rating” value [8, 18] was 10. For the same molecule, the “Morningglory plant response rating” value [8, 19] was 0, the “Pigweed plant response rating” value [9, 18] was 20 and the “Pigweed plant response rating” value [9, 19] was 20. For the same molecule, the “Velvetleaf plant response rating” value [10, 18] was 30, the “Velvetleaf plant response rating” value [10, 19] was 0 and the “Blackgrass plant response rating” value [11, 18] was 50. The “Blackgrass plant response rating” value [11, 19] was 30, the “Wheat plant response rating” value ([12]; 250 g ai/ha, scale 0 to 100, 0 no effect, 100 complete control, preemergence) was 0 and the “Wheat plant response rating” value [12, 18] was 20. For the same molecule, the “Wheat plant response rating” value [12, 19] was 20, the “Oat, Wild plant response rating” value [13, 18] was 40 and the “Oat, Wild plant response rating” value [13, 19] was 30. The “Rice plant response rating” value [14, 20] was 0, the “Sedge, Umbrella plant response rating” value [15, 20] was 70 and the “Ducksalad plant response rating” value [16, 20] was 0. The “Barnyardgrass plant response rating” value [17, 20] was 0.

With `C=CCNC(=O)c1ccc(F)c(N(C(C)=O)C(=O)c2cc(C(C)(C)C)nn2CC)c1` [Compound 443] the “Barnyardgrass plant response rating” value ([1]; Postemergence, 125 g ai/ha, scale 0 (no effect) to 100 (complete control)) was 20, the “Barnyardgrass plant response rating” value [1, 21] was 30 and the “Surinam Grass plant response rating” value [2, 21] was 20. For the same molecule, the “Surinam Grass plant response rating” value [2, 22] was 20, the “Cocklebur plant response rating” value [3, 21] was 80 and the “Cocklebur plant response rating” value [3, 22] was 50. For the same molecule, the “Corn plant response rating” value [4, 21] was 20, the “Corn plant response rating” value [4, 22] was 20 and the “Crabgrass, Large plant response rating” value [5, 21] was 30. For the same molecule, the “Crabgrass, Large plant response rating” value [5, 22] was 20, the “Foxtail, Giant plant response rating” value [6, 21] was 40 and the “Foxtail, Giant plant response rating” value [6, 22] was 30. The “Lambsquarters plant response rating” value [7, 21] was 80, the “Lambsquarters plant response rating” value [7, 22] was 70 and the “Morningglory plant response rating” value [8, 21] was 60. The “Morningglory plant response rating” value [8, 22] was 50, the “Pigweed plant response rating” value [9, 21] was 80 and the “Pigweed plant response rating” value [9, 22] was 60. The “Velvetleaf plant response rating” value [10, 21] was 50, the “Velvetleaf plant response rating” value [10, 22] was 50 and the “Blackgrass plant response rating” value [11, 21] was 40. The “Blackgrass plant response rating” value [11, 22] was 30, the “Wheat plant response rating” value ([12]; 500 g ai/ha, scale 0 to 100, 0 no effect, 100 complete control, preemergence) was 100 and the “Wheat plant response rating” value [12, 21] was 50. For the same molecule, the “Wheat plant response rating” value [12, 22] was 40, the “Oat, Wild plant response rating” value [13, 21] was 60 and the “Oat, Wild plant response rating” value [13, 22] was 40. The “Rice plant response rating” value ([14]; 125 g ai/ha) was 70, the “Sedge, Umbrella plant response rating” value ([15]; 125 g ai/ha) was 80 and the “Ducksalad plant response rating” value ([16]; 125 g ai/ha) was 70. For the same molecule, the “Barnyardgrass plant response rating” value ([17]; 125 g ai/ha) was 80.
